Laboratory results reported in patent US12660819B2, “Herbicidal derivatives” (SYNGENTA CROP PROTECTION AG, priority 2020, dated 2026).

Columns and labels:
Assay type in all cases: in vivo
[1] = test system: Amaranthus retoflexus (AMARE); assay: Post-emergence Test (glasshouse, percentage damage to the plant); conditions: 1000 g/ha unless otherwise stated, evaluated after 13 days; for Post-emergence Test AMARE, percentage damage to the plant (five-point scale): post-emergence spray
Experimental: (§1) Seeds of a variety of test species are sown in standard soil in pots (Amaranthus retoflexus (AMARE), Solanum nigrum (SOLNI), Setaria faberi (SETFA), Lolium perenne (LOLPE), Echinochloa crus-galli (ECHCG), Ipomoea hederacea (IPOHE), Abutilon theophrasti (ABUTH), Zea mays (ZEAMX), Amaranthus palmeri (AMAPA). After 8 days cultivation under controlled conditions in a glasshouse (at 24° C./16° C., day/night; 14 hours light; 65% humidity), the plants are sprayed with an aqueous spray solution derived from the formulation of the technical active ingredient in acetone/water (50:50) solution containing 0.5% Tween 20 (polyoxyethelyene sorbitan monolaurate, CAS RN 9005-64-5). Compounds are applied at 1000 g/ha unless otherwise stated. The test plants are then grown in a glasshouse under controlled conditions in a glasshouse (at 24° C./16° C., day/night; 14 hours light; 65% humidity) and watered twice daily. After 13 days the test is evaluated for the percentage damage caused to the plant. The biological activities are shown in the following table on a five-point scale (5=81-100%; 4=61-80%; 3=41-60%; 2=21-40%; 1=0-20%).

[2] = test system: Ipomoea hederacea (IPOHE); assay: as above; conditions: 1000 g/ha unless otherwise stated, evaluated after 13 days; for Post-emergence Test IPOHE, percentage damage to the plant (five-point scale): post-emergence spray
Experimental: as §1

Setaria faberi (SETFA) [3] = assay: as above; conditions: 1000 g/ha unless otherwise stated, evaluated after 13 days; for Post-emergence Test SETFA, percentage damage to the plant (five-point scale): post-emergence spray
Experimental: as §1

Zea mays (ZEAMX) [4] = assay: as above; conditions: 1000 g/ha unless otherwise stated, evaluated after 13 days; for Post-emergence Test ZEAMX, percentage damage to the plant (five-point scale): post-emergence spray
Experimental: as §1

[5] = test system: Amaranthus retoflexus (AMARE); assay: Pre-emergence Test (glasshouse, percentage damage to the plant); conditions: 1000 g/ha unless otherwise stated; for percentage damage to the plant, AMARE: five-point scale
Setaria faberi (SETFA) [6] = assay: as above; conditions: 1000 g/ha unless otherwise stated; for percentage damage to the plant, SETFA: five-point scale
[7] = test system: Echinochloa crus-galli (ECHCG); assay: as above; conditions: 1000 g/ha unless otherwise stated; for percentage damage to the plant, ECHCG: five-point scale
[8] = test system: Ipomoea hederacea (IPOHE); assay: as above; conditions: 1000 g/ha unless otherwise stated; for percentage damage to the plant, IPOHE: five-point scale
[9] = test system: Abutilon theophrasti (ABUTH); assay: as above; conditions: 1000 g/ha unless otherwise stated; for percentage damage to the plant, ABUTH: five-point scale
Zea mays (ZEAMX) [10] = assay: as above; conditions: 1000 g/ha unless otherwise stated; for percentage damage to the plant, ZEAMX: five-point scale

Row | Compound | Post-emergence Test AMARE, percentage damage to the plant (five-point scale) [1] | Post-emergence Test IPOHE, percentage damage to the plant (five-point scale) [2] | Post-emergence Test SETFA, percentage damage to the plant (five-point scale) (Setaria faberi (SETFA) [3]) | Post-emergence Test ZEAMX, percentage damage to the plant (five-point scale) (Zea mays (ZEAMX) [4]) | percentage damage to the plant, AMARE [5] | percentage damage to the plant, SETFA (Setaria faberi (SETFA) [6]) | percentage damage to the plant, ECHCG [7] | percentage damage to the plant, IPOHE [8] | percentage damage to the plant, ABUTH [9] | percentage damage to the plant, ZEAMX (Zea mays (ZEAMX) [10]) | AMARE, percentage damage caused to the plant (five-point scale) ([1]; post-emergence) | IPOHE, percentage damage caused to the plant (five-point scale) ([2]; post-emergence) | SETFA, percentage damage caused to the plant (five-point scale) (Setaria faberi (SETFA) [3]; post-emergence) | ZEAMX, percentage damage caused to the plant (five-point scale) (Zea mays (ZEAMX) [4]; post-emergence) | percentage damage to the plant, AMARE (five-point scale) ([5]; Amaranthus retoflexus) | percentage damage to the plant, SETFA (five-point scale) (Setaria faberi (SETFA) [6]; Setaria faberi) | percentage damage to the plant, ECHCG (five-point scale) ([7]; Echinochloa crus-galli) | percentage damage to the plant, IPOHE (five-point scale) ([8]; Ipomoea hederacea) | percentage damage to the plant, ABUTH (five-point scale) ([9]; Abutilon theophrasti) | percentage damage to the plant, ZEAMX (five-point scale) (Zea mays (ZEAMX) [10]; Zea mays)
1 | CCn1c(C)c(-c2ccc(Cl)cc2Cl)c(=O)c(C(=O)O)c1-c1ccc(Cl)cc1 [Compound 193, 2-(4-chlorophenyl)-5-(2,4-dichlorophenyl)-1-ethyl-6-methyl-4-oxo-pyridine-3-carboxylic acid] | 5 (5=81-100%) | 3 (3=41-60%) | 4 (4=61-80%) | 2 (2=21-40%) | 2 (2=21-40%) | 2 (2=21-40%) | 1 (1=0-20%) | 0 | 2 (2=21-40%) | 1 (1=0-20%) | – | – | – | – | – | – | – | – | – | –
2 | CCn1c(C)c(-c2ccc(C(F)(F)F)c(Cl)c2)c(=O)c(C(=O)O)c1-c1ccc(Cl)cc1 [Compound 171, 2-(4-chlorophenyl)-5-[3-chloro-4-(trifluoromethyl)phenyl]-1-ethyl-6-methyl-4-oxo-pyridine-3-carboxylic acid] | 3 (3=41-60%) | 4 (4=61-80%) | 3 (3=41-60%) | 2 (2=21-40%) | 0 | 0 | 1 (1=0-20%) | 1 (1=0-20%) | 0 | 0 | – | – | – | – | – | – | – | – | – | –
3 | CCn1c(C)c(-c2ccc(C(F)(F)F)cc2)c(=O)c(C(=O)O)c1-c1ccnc(Cl)c1 [Compound 140, 2-(2-chloro-4-pyridyl)-1-ethyl-6-methyl-4-oxo-5-[4-(trifluoromethyl)phenyl] pyridine-3-carboxylic acid] | 1 (1=0-20%) | 3 (3=41-60%) | 4 (4=61-80%) | 1 (1=0-20%) | 1 (1=0-20%) | 2 (2=21-40%) | 2 (2=21-40%) | 1 (1=0-20%) | 1 (1=0-20%) | 0 | – | – | – | – | – | – | – | – | – | –
4 | CCn1c(C)c(-c2cc(Cl)cc(Cl)c2)c(=O)c(C(=O)O)c1-c1ccc(Cl)cc1 [Compound 188, 2-(4-chlorophenyl)-5-(3,5-dichlorophenyl)-1-ethyl-6-methyl-4-oxo-pyridine-3-carboxylic acid] | 0 | 1 (1=0-20%) | 0 | 1 (1=0-20%) | 0 | 0 | 0 | 0 | 0 | 0 | – | – | – | – | – | – | – | – | – | –
5 | CCn1c(C)c(-c2cccc(C(F)(F)F)c2F)c(=O)c(C(=O)O)c1-c1ccc(Cl)cc1 [Compound 181, 2-(4-chlorophenyl)-1-ethyl-5-[2-fluoro-3-(trifluoromethyl)phenyl]-6-methyl-4-oxo-pyridine-3-carboxylic acid] | 3 (3=41-60%) | 2 (2=21-40%) | 3 (3=41-60%) | 1 (1=0-20%) | 1 (1=0-20%) | 5 (5=81-100%) | 4 (4=61-80%) | 4 (4=61-80%) | 4 (4=61-80%) | 2 (2=21-40%) | – | – | – | – | – | – | – | – | – | –
6 | CCn1c(-c2ccc(Cl)c(Cl)c2)c(C(=O)OC)c(=O)c(-c2ccc(Cl)cc2)c1C(F)(F)F [Compound 169, methyl 5-(4-chlorophenyl)-2-(3,4-dichlorophenyl)-1-ethyl-4-oxo-6-(trifluoromethyl) pyridine-3-carboxylate] | 1 (1=0-20%) | 0 | 0 | 1 (1=0-20%) | 0 | 0 | 0 | 0 | 0 | 0 | – | – | – | – | – | – | – | – | – | –
7 | CCn1c(C)c(-c2cc(F)c(F)c(F)c2)c(=O)c(C(=O)O)c1-c1ccc(Cl)cc1 [Compound 200, 2-(4-chlorophenyl)-1-ethyl-6-methyl-4-oxo-5-(3,4,5-trifluorophenyl)pyridine-3-carboxylic acid] | – | – | – | – | – | – | – | – | – | – | 1 (1=0-20%) | 3 (3=41-60%) | 3 (3=41-60%) | 2 (2=21-40%) | 0 | 2 (2=21-40%) | 3 (3=41-60%) | 2 (2=21-40%) | 3 (3=41-60%) | 0
8 | CCn1c(C)c(-c2cc(C(F)(F)F)ccc2F)c(=O)c(C(=O)O)c1-c1ccc(Cl)cc1 [Compound 177, 2-(4-chlorophenyl)-1-ethyl-5-[2-fluoro-5-(trifluoromethyl)phenyl]-6-methyl-4-oxo-pyridine-3-carboxylic acid] | 4 (4=61-80%) | 3 (3=41-60%) | 4 (4=61-80%) | 3 (3=41-60%) | 1 (1=0-20%) | 2 (2=21-40%) | 1 (1=0-20%) | 3 (3=41-60%) | 3 (3=41-60%) | 0 | – | – | – | – | – | – | – | – | – | –
9 | CCn1c(C)c(-c2cccc(Cl)c2Cl)c(=O)c(C(=O)O)c1-c1ccc(Cl)cc1 [Compound 172, 2-(4-chlorophenyl)-5-(2,3-dichlorophenyl)-1-ethyl-6-methyl-4-oxo-pyridine-3-carboxylic acid] | 2 (2=21-40%) | 4 (4=61-80%) | 4 (4=61-80%) | 2 (2=21-40%) | 1 (1=0-20%) | 3 (3=41-60%) | 3 (3=41-60%) | 1 (1=0-20%) | 1 (1=0-20%) | 0 | – | – | – | – | – | – | – | – | – | –
10 | CCn1c(C)c(-c2ccc(F)cc2OC)c(=O)c(C(=O)O)c1-c1ccc(Cl)cc1 [Compound 186, 2-(4-chlorophenyl)-1-ethyl-5-(4-fluoro-2-methoxy-phenyl)-6-methyl-4-oxo-pyridine-3-carboxylic acid] | 1 (1=0-20%) | 2 (2=21-40%) | 3 (3=41-60%) | 2 (2=21-40%) | 1 (1=0-20%) | 2 (2=21-40%) | 1 (1=0-20%) | 1 (1=0-20%) | 3 (3=41-60%) | 0 | – | – | – | – | – | – | – | – | – | –
